Measured values as given in ChEMBL document CHEMBL5543097, “Synthesis and structure-activity relationships of novel 14-membered 2-fluoro ketolides with structural modification at the C11 position” (Eur J Med Chem, 2024).
Values after ≈ are worked out from the molar mass of the structure shown.

Tests used:
[1] = test system: Staphylococcus epidermidis; test: Antibacterial activity against erythromycin-resistant Staphylococcus epidermidis 19-8 assessed as inhibition of visible bacterial growth incubated for 18 hrs by broth microdilution method; type: functional
[2] = Cytotoxicity against mouse AML12 cells assessed as reduction in cell viability incubated for 48 hrs by MTT assay; type: toxicity, cell-based
[3] = test system: Staphylococcus epidermidis; test: Antibacterial activity against erythromycin-resistant Staphylococcus epidermidis 19-9 assessed as inhibition of visible bacterial growth incubated for 18 hrs by broth microdilution method; type: functional
[4] = test system: Streptococcus pneumoniae; test: Antibacterial activity against erythromycin-resistant Streptococcus pneumoniae SPN19-13 assessed as inhibition of visible bacterial growth incubated for 18 hrs by broth microdilution method; type: functional
[5] = test system: Streptococcus pyogenes; test: Antibacterial activity against erythromycin-resistant Streptococcus pyogenes ATCC 19615 assessed as inhibition of visible bacterial growth incubated for 18 hrs by broth microdilution method; type: functional
[6] = test system: Streptococcus agalactiae; test: Antibacterial activity against erythromycin-resistant Streptococcus agalactiae 19-9 assessed as inhibition of visible bacterial growth incubated for 18 hrs by broth microdilution method; type: functional
[7] = test system: Staphylococcus epidermidis; test: Antibacterial activity against erythromycin-resistant Staphylococcus epidermidis 19-5 assessed as inhibition of visible bacterial growth incubated for 18 hrs by broth microdilution method; type: functional
[8] = test system: Streptococcus pneumoniae; test: Antibacterial activity against erythromycin-resistant Streptococcus pneumoniae SPN19-8 assessed as inhibition of visible bacterial growth incubated for 18 hrs by broth microdilution method; type: functional
[9] = test system: Staphylococcus epidermidis; test: Antibacterial activity against erythromycin-resistant Staphylococcus epidermidis 19-11 assessed as inhibition of visible bacterial growth incubated for 18 hrs by broth microdilution method; type: functional
[10] = test system: Staphylococcus epidermidis; test: Antibacterial activity against erythromycin-resistant Staphylococcus epidermidis 19-6 assessed as inhibition of visible bacterial growth incubated for 18 hrs by broth microdilution method; type: functional
[11] = test system: Streptococcus pneumoniae; test: Antibacterial activity against erythromycin-resistant Streptococcus pneumoniae SPN19-14 assessed as inhibition of visible bacterial growth incubated for 18 hrs by broth microdilution method; type: functional
[12] = test system: Streptococcus agalactiae; test: Antibacterial activity against erythromycin-resistant Streptococcus agalactiae 19-8 assessed as inhibition of visible bacterial growth incubated for 18 hrs by broth microdilution method; type: functional
[13] = test system: Staphylococcus epidermidis; test: Antibacterial activity against erythromycin-resistant Staphylococcus epidermidis 19-4 assessed as inhibition of visible bacterial growth incubated for 18 hrs by broth microdilution method; type: functional
[14] = test system: Haemophilus influenzae; test: Antibacterial activity against Haemophilus influenzae HIN 19-15 assessed as inhibition of bacterial growth incubated for 20 to 24 hrs by CLSI based broth microdilution method; type: functional; settings: time 20-24 hrs
[15] = test system: Haemophilus influenzae; test: Antibacterial activity against Haemophilus influenzae HIN 19-18 assessed as inhibition of bacterial growth incubated for 20 to 24 hrs by CLSI based broth microdilution method; type: functional; settings: HIN 19-18, time 20-24 hrs
[16] = test system: Moraxella catarrhalis; test: Antibacterial activity against Moraxella catarrhalis BCA 19-31 assessed as inhibition of bacterial growth incubated for 24 hrs by CLSI based broth microdilution method; type: functional; settings: BCA 19-31, 24 h
[17] = test system: Moraxella catarrhalis; test: Antibacterial activity against Moraxella catarrhalis BCA 19-5 assessed as inhibition of bacterial growth incubated for 24 hrs by CLSI based broth microdilution method; type: functional; settings: Moraxella catarrhalis, BCA 19-5, 24 h, read-out: MIC
[18] = test system: Moraxella catarrhalis; test: Antibacterial activity against Moraxella catarrhalis BCA 19-6 assessed as inhibition of bacterial growth incubated for 24 hrs by CLSI based broth microdilution method; type: functional; settings: Moraxella catarrhalis, BCA 19-6, 24 h, read-out: MIC
[19] = test system: Haemophilus influenzae; test: Antibacterial activity against Haemophilus influenzae HIN 20-18 assessed as inhibition of bacterial growth incubated for 20 to 24 hrs by CLSI based broth microdilution method; type: functional; settings: time 20-24 hrs

Q: What does the source list for `CCc1ccc(NC(=O)OCCCN2C(=O)O[C@]3(C)[C@@H](CC)OC(=O)[C@@](C)(F)C(=O)[C@H](C)[C@@H](O[C@@H]4O[C@H](C)C[C@H](N(C)C)[C@H]4O)[C@](C)(OC)C[C@@H](C)C(=O)[C@H](C)[C@@H]23)cc1`?
A: MIC [1]: < 0.03 µg/mL; CC50 at 48 h [2]: 25.6 µM; MIC [3]: 0.125 µg/mL (≈ 0.15 µM); MIC [4]: 0.06 µg/mL (≈ 0.0718 µM); MIC [5]: < 0.03 µg/mL; MIC [6]: 0.5 µg/mL (≈ 0.598 µM); MIC [7]: < 0.03 µg/mL; MIC [8]: 0.125 µg/mL (≈ 0.15 µM); MIC [9]: 0.03 µg/mL (≈ 0.0359 µM); MIC [10]: < 0.03 µg/mL; MIC [11]: < 0.03 µg/mL; MIC [12]: < 0.03 µg/mL; MIC [13]: < 0.03 µg/mL

Q: With `CC[C@H]1OC(=O)[C@@](C)(F)C(=O)[C@H](C)[C@@H](O[C@@H]2O[C@H](C)C[C@H](N(C)C)[C@H]2O)[C@](C)(OC)C[C@@H](C)C(=O)[C@H](C)[C@H]2N(CCCOC(=O)Nc3cc(C)cc(C)c3)C(=O)O[C@]12C` as the compound, how does the MIC [1] read?
A: 0.25 µg/mL (≈ 0.299 µM)

Q: What about the CC50 at 48 h [2] of the same compound?
A: 25.5 µM

Q: And the MIC [3]?
A: 0.5 µg/mL (≈ 0.598 µM)

Q: What about the MIC [4] of the same compound?
A: 0.5 µg/mL (≈ 0.598 µM)

Q: And the MIC [5]?
A: < 0.03 µg/mL

Q: What about the MIC [6] of the same compound?
A: 4 µg/mL (≈ 4.78 µM)

Q: What about the MIC [14] of the same compound?
A: 16 µg/mL (≈ 19.1 µM)

Q: And the MIC [7]?
A: < 0.03 µg/mL

Q: What about the MIC [15] of the same compound?
A: 16 µg/mL (≈ 19.1 µM)

Q: What about the MIC [8] of the same compound?
A: 0.5 µg/mL (≈ 0.598 µM)

Q: What about the MIC [9] of the same compound?
A: 0.25 µg/mL (≈ 0.299 µM)

Q: And the MIC [16]?
A: 0.5 µg/mL (≈ 0.598 µM)

Q: And the MIC [17]?
A: 1 µg/mL (≈ 1.2 µM)

Q: And the MIC [10]?
A: 0.5 µg/mL (≈ 0.598 µM)

Q: And the MIC [11]?
A: 1 µg/mL (≈ 1.2 µM)

Q: What about the MIC [18] of the same compound?
A: 1 µg/mL (≈ 1.2 µM)

Q: What about the MIC [12] of the same compound?
A: 0.06 µg/mL (≈ 0.0718 µM)

Q: What about the MIC [13] of the same compound?
A: < 0.25 µg/mL

Q: Which results are given for `CC[C@H]1OC(=O)[C@@](C)(F)C(=O)[C@H](C)[C@@H](O[C@@H]2O[C@H](C)C[C@H](N(C)C)[C@H]2O)[C@](C)(OC)C[C@@H](C)C(=O)[C@H](C)[C@H]2N(CCCOC(=O)Nc3ccc(SC)cc3)C(=O)O[C@]12C`?
A: MIC [1]: 0.125 µg/mL (≈ 0.146 µM); CC50 at 48 h [2]: 76.1 µM; MIC [3]: 0.25 µg/mL (≈ 0.293 µM); MIC [4]: 0.25 µg/mL (≈ 0.293 µM); MIC [5]: < 0.03 µg/mL; MIC [6]: 16 µg/mL (≈ 18.7 µM); MIC [14]: 16 µg/mL (≈ 18.7 µM); MIC [7]: 0.125 µg/mL (≈ 0.146 µM); MIC [15]: 8 µg/mL (≈ 9.37 µM); MIC [8]: 1 µg/mL (≈ 1.17 µM); MIC [9]: 0.125 µg/mL (≈ 0.146 µM); MIC [16]: 0.125 µg/mL (≈ 0.146 µM); MIC [17]: 0.5 µg/mL (≈ 0.585 µM); MIC [10]: 0.125 µg/mL (≈ 0.146 µM); MIC [11]: 0.25 µg/mL (≈ 0.293 µM); MIC [18]: 0.5 µg/mL (≈ 0.585 µM); MIC [12]: 0.03 µg/mL (≈ 0.0351 µM); MIC [13]: 0.125 µg/mL (≈ 0.146 µM)

Q: Which results are given for `CC[C@H]1OC(=O)[C@@](C)(F)C(=O)[C@H](C)[C@@H](O[C@@H]2O[C@H](C)C[C@H](N(C)C)[C@H]2O)[C@](C)(OC)C[C@@H](C)C(=O)[C@H](C)[C@H]2N(CCCOC(=O)Nc3cc(C)ccc3C)C(=O)O[C@]12C`?
A: CC50 at 48 h [2]: 33.1 µM; MIC [14]: 8 µg/mL (≈ 9.57 µM); MIC [15]: 8 µg/mL (≈ 9.57 µM); MIC [19]: 16 µg/mL (≈ 19.1 µM); MIC [16]: 0.125 µg/mL (≈ 0.15 µM); MIC [17]: 0.125 µg/mL (≈ 0.15 µM); MIC [18]: 0.125 µg/mL (≈ 0.15 µM)

Q: For `CC[C@H]1OC(=O)[C@H](C)C(=O)[C@H](C)[C@@H](O[C@@H]2O[C@H](C)C[C@H](N(C)C)[C@H]2O)[C@](C)(OC)C[C@@H](C)C(=O)[C@H](C)[C@H]2N(CCCOC(=O)Nc3ccc(C)cc3)C(=O)O[C@]12C`, which MIC [1] is on record?
A: < 0.03 µg/mL

Q: And the CC50 at 48 h [2]?
A: 20.8 µM

Q: And the MIC [3]?
A: 0.5 µg/mL (≈ 0.622 µM)

Q: And the MIC [4]?
A: 0.25 µg/mL (≈ 0.311 µM)

Q: And the MIC [5]?
A: < 0.03 µg/mL

Q: And the MIC [6]?
A: 1 µg/mL (≈ 1.24 µM)

Q: And the MIC [14]?
A: 32 µg/mL (≈ 39.8 µM)

Q: And the MIC [7]?
A: 0.125 µg/mL (≈ 0.155 µM)

Q: What about the MIC [15] of the same compound?
A: 32 µg/mL (≈ 39.8 µM)

Q: And the MIC [8]?
A: 0.5 µg/mL (≈ 0.622 µM)

Q: And the MIC [9]?
A: 0.125 µg/mL (≈ 0.155 µM)

Q: What about the MIC [16] of the same compound?
A: 1 µg/mL (≈ 1.24 µM)

Q: What about the MIC [17] of the same compound?
A: 0.125 µg/mL (≈ 0.155 µM)

Q: And the MIC [10]?
A: 0.125 µg/mL (≈ 0.155 µM)

Q: What about the MIC [11] of the same compound?
A: 0.25 µg/mL (≈ 0.311 µM)

Q: What about the MIC [18] of the same compound?
A: 0.25 µg/mL (≈ 0.311 µM)

Q: And the MIC [12]?
A: < 0.03 µg/mL

Q: What about the MIC [13] of the same compound?
A: 0.125 µg/mL (≈ 0.155 µM)

Q: With `CC[C@H]1OC(=O)[C@@](C)(F)C(=O)[C@H](C)[C@@H](O[C@@H]2O[C@H](C)C[C@H](N(C)C)[C@H]2O)[C@](C)(OC)C[C@@H](C)C(=O)[C@H](C)[C@H]2N(CCCOC(=O)Nc3cc(C)oc3C(F)(F)F)C(=O)O[C@]12C` as the compound, how does the CC50 at 48 h [2] read?
A: 35.9 µM

Q: What about the MIC [14] of the same compound?
A: 0.5 µg/mL (≈ 0.568 µM)

Q: And the MIC [15]?
A: 4 µg/mL (≈ 4.55 µM)

Q: What about the MIC [19] of the same compound?
A: > 16 µg/mL

Q: And the MIC [16]?
A: 0.5 µg/mL (≈ 0.568 µM)

Q: What about the MIC [17] of the same compound?
A: 0.5 µg/mL (≈ 0.568 µM)

Q: What about the MIC [18] of the same compound?
A: 0.5 µg/mL (≈ 0.568 µM)

Q: What does the source list for `CC[C@H]1OC(=O)[C@H](C)C(=O)[C@H](C)[C@@H](O[C@@H]2O[C@H](C)C[C@H](N(C)C)[C@H]2O)[C@](C)(OC)C[C@@H](C)C(=O)[C@H](C)[C@H]2N(CCCOC(=O)Nc3cccc(C)c3)C(=O)O[C@]12C`?
A: MIC [1]: 0.5 µg/mL (≈ 0.622 µM); CC50 at 48 h [2]: 71.7 µM; MIC [3]: 1 µg/mL (≈ 1.24 µM); MIC [4]: 1 µg/mL (≈ 1.24 µM); MIC [5]: < 0.03 µg/mL; MIC [6]: 0.5 µg/mL (≈ 0.622 µM); MIC [14]: 32 µg/mL (≈ 39.8 µM); MIC [7]: 0.5 µg/mL (≈ 0.622 µM); MIC [15]: 32 µg/mL (≈ 39.8 µM); MIC [8]: 1 µg/mL (≈ 1.24 µM); MIC [9]: 0.5 µg/mL (≈ 0.622 µM); MIC [16]: 1 µg/mL (≈ 1.24 µM); MIC [17]: 0.5 µg/mL (≈ 0.622 µM); MIC [10]: 0.5 µg/mL (≈ 0.622 µM); MIC [11]: 1 µg/mL (≈ 1.24 µM); MIC [18]: 0.5 µg/mL (≈ 0.622 µM); MIC [12]: < 0.03 µg/mL; MIC [13]: 2 µg/mL (≈ 2.49 µM)
